Test results from US11130902B2, “Gas hydrate inhibitors” (Lamberti SPA, priority 2016, dated 2021).

What was measured:
[1] = Corrosion tests, Linear Polarization Resistance (LPR); conditions: 10 ppm by volume inhibitor, synthetic brine, CO2, 200 ppm H2S, 80° C., compared to the blank; for % Protection, 1 hour: after 1 hour; for % Protection, 16 hours: after 16 hours
Description: The Linear Polarization Resistance (LPR) measurements were made with a Gamry Electrochemical Instrument system.
The LPR corrosion tests were conducted in 1 L Pyrex jacketed cells. 900 mL of synthetic brine (50/50 v/v 4.0% Seasalt water/Fresh Water) were loaded in the cell placed on a magnetic stirrer, deaerated overnight with CO2 and, finally, saturated with 200 ppm H2S gas just before testing. A clean C1018 Mild Steel rod was inserted in the corrosion cell assembly as sample probe. A graphite rod was used as the counter electrode. The temperature of the solution was brought to 80° C. for the duration of the tests and CO2 was continuously purged at a constant flow rate. The (Test 4) inhibitors were added at 10 ppm by volume of test solution.
The results are reported in Table 4 as % of protection after a fixed period of time compared to the blank, the test solution without any inhibitor, which is considered 100% corrosion.

[2] = Foaming power tests (Waring Blender); type: physicochemical; conditions: 30 seconds at 8000 rpm; for FS (foam stability, time to regenerate 50 mL of liquid), Test 4 / FV (foam volume), Test 4: 1% by weight solution in 4% sea salt water solution; for FS (foam stability, time to regenerate 50 mL of liquid), Test 3 / FV (foam volume), Test 3: 1% by weight solution in deionized water
Description: The foam volume (FV) and the foam stability (FS) were determined by stirring for 30 seconds at high speed (8000 rpm) with a Waring Blender 100 mL of a 1% by weight solution of the inhibitors in deionized water (Test 3) or in a 4% sea salt water solution (Test 4). The foamed composition is then transferred into a graded cylinder for the evaluation of the foam volume and the stability of the foam.
FV represent the volume in mL of foam at the end of the stirring. FS is the time in seconds required to the foamed solution to regenerate 50 mL of liquid. The longer the time, the higher the stability of the foam.

[3] = Gas hydrate inhibition test (Rocking Cell RC5); design: key: FAIL: The ball is stuck and/or large agglomerations or solid crystals and/or visible deposits on the cell walls.; PASS: The ball is free; solid crystals might be present, but agglomerates (large or small) break up with agitation; conditions: 2% by weight inhibitor, 4° C., visual evaluation after 16 hours shut-in; for gas hydrate inhibition, Test 2: 20/80 v/v deionized water/diesel; for gas hydrate inhibition, Test 1: 50/50 v/v 4% wt seasalt water/diesel
Description: Gas Hydrate Inhibition Test
The performances of the gas hydrate inhibitors of the invention were evaluated with a Rocking Cell RC5 by PSL Systemtechnik.
Test Fluids • Hydrocarbon: Diesel • Aq. Phase: 4% wt seasalt water or deionized water • Gas: Mix of methane, ethane, propane and butane (various isomers)
The sapphire test cells, containing a stainless steel ball, were filled with the fluids (see Table 1) and 2% by weight of inhibitor and pressurized with the gas mixture.
Each cell was the subjected to a cycle of cooling and rocking consisting of three steps: 1) flowing condition, 2) shut-in and 3) re-start flowing condition. • 1) The pressurized cells were cooled down to 4° C. over a period of 5 hours while rocking. After reaching 4° C., the cells were rocked for 12 hours. • 2) The rocking was stopped and the test cells were kept in horizontal position (shut-in) for 16 hours. • 3) At the end of the shut-in period, rocking was re-started for 4 hours. Finally the cells were heated back up to 20° C.
At the beginning of the third step, the content of the cells was visually evaluated.
Each cycle was replicated three times and the results registered.
The results of the gas hydrate inhibition tests (Table 2) are reported according to the following scale: • FAIL: The ball is stuck and/or large agglomerations or solid crystals and/or visible deposits on the cell walls. • PASS: The ball is free; solid crystals might be present, but agglomerates (large or small) break up with agitation.

FS (foam stability, time to regenerate 50 mL of liquid), Test 4 [2] [s] | FV (foam volume), Test 4 [2] [mL] | FS (foam stability, time to regenerate 50 mL of liquid), Test 3 [2] [s] | FV (foam volume), Test 3 [2] [mL] | Substance | % Protection, 1 hour [1] [%] | % Protection, 16 hours [1] [%] | gas hydrate inhibition, Test 2 [3] | gas hydrate inhibition, Test 1 [3]
59 | 172 | 97 | 210 | N,N-dibutyl-N-ethyl-cocooxyethyl ammonium chloride | 78.9 | 87.9 |  | 
46 | 160 | 70 | 185 | N,N-dibutyl-N-ethyl-cocooxyethyl ammonium ethyl sulfate | 81.4 | 90.2 | PASS | PASS
118 | 230 | 180 | 320 | N,N-dibutyl-N-ethyl-soyaoxyethyl ammonium ethyl sulfate |  |  |  | 
215 | 430 | 260 | 480 | benzylcocodimethyl ammonium chloride | 79.7 | 89.5 | FAIL | FAIL
